Patent publication US9505749B2, “Quinazolinone compounds and derivatives thereof” (AMGEN INC., priority 2012, dated 2016)
Like-named read-outs stand apart in the source and are kept apart here.

Tests used:
[1] = system: total β-catenin in SW480 colorectal cells; assay: Total β-catenin MSD 96-well plate assay for SW480 cells; settings: Homo sapiens, SW480, read-out: SW480-Total beta-catenin (TBC) IC50 IP
PARP1 = PARP1 (Homo sapiens (Human), UniProt P09874); assay: PARP1 biochemical assay (Trevigen kit)
Text: PARP1 biochemical assay was purchased as a kit from Trevigen (cat.#4676-096-K) and used per manufacturers recommendations.

[2] = molecular target: 6×HIS-tankyrase1 (1091-1325) (Homo sapiens (Human), UniProt O95271); assay: Tankyrase 1 biochemical assay (AlphaLisa, PARsylation); settings: read-out: TNKS1 IC50
PARP2 = PARP2 (Homo sapiens (Human), UniProt Q9UGN5); assay: PARP2 biochemical assay (BPS kit)
[3] = molecular target: 6×HIS-tankyrase 2 (946-1162) (Homo sapiens (Human), UniProt Q9H2K2); assay: Tankyrase 2 biochemical assay (AlphaLisa, PARsylation); settings: 250 nM NAD; read-out: TNKS2 IC50
[4] = system: Axin2 accumulation in SW480 cells; assay: Axin2 384 immunofluorescence assay; format: cell-based; settings: Homo sapiens, read-out: Axin2 384 IF EC50

Sequence of 6×HIS-tankyrase1 (1091-1325) (O95271 1091-1325): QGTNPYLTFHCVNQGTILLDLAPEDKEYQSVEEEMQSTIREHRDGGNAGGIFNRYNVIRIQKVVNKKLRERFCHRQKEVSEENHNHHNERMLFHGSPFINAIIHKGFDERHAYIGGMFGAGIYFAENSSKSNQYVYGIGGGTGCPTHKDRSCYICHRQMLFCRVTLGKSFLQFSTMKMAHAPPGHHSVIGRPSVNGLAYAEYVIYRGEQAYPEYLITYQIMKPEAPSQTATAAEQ
Sequence of PARP2 (Q9UGN5 whole entry): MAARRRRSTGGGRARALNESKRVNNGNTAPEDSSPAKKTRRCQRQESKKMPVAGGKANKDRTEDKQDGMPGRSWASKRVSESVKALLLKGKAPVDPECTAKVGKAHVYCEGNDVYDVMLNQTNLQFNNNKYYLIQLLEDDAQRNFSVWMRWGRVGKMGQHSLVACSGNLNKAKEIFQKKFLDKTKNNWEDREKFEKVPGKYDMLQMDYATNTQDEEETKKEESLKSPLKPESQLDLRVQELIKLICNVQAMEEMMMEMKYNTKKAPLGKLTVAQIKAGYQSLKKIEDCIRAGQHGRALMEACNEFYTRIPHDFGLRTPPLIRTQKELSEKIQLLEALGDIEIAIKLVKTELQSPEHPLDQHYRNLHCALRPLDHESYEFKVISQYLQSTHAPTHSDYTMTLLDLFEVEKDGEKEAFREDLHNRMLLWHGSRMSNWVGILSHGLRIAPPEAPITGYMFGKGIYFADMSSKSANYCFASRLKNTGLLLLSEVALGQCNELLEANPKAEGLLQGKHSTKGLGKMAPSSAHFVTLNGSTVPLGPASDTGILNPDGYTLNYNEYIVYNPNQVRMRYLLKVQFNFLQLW
Sequence of PARP1 (P09874 whole entry): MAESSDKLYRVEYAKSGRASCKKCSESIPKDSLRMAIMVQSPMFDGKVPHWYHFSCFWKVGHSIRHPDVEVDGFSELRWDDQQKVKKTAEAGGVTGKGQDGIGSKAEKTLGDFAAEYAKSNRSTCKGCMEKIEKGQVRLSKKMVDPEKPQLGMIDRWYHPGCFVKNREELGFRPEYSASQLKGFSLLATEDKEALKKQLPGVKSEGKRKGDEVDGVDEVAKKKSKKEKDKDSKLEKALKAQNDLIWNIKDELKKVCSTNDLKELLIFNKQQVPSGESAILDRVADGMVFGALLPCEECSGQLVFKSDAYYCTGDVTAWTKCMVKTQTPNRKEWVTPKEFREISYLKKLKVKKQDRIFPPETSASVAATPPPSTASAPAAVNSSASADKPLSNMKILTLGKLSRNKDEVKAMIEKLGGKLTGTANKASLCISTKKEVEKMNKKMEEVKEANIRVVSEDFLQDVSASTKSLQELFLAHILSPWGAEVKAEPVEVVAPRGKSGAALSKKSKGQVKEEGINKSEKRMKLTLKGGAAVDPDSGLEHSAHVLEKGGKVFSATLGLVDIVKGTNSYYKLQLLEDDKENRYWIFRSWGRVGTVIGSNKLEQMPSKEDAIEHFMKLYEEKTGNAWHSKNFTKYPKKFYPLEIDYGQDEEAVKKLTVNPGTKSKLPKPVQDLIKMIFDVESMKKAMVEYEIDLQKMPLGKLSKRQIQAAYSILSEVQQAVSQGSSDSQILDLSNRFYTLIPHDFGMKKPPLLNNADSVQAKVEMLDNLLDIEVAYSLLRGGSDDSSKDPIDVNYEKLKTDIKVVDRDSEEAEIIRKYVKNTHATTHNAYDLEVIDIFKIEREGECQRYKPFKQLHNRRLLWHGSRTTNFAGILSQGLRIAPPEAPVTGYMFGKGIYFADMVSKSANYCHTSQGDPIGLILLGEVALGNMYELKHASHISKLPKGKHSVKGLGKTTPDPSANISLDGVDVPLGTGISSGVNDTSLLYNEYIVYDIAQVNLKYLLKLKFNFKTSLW
Sequence of 6×HIS-tankyrase 2 (946-1162) (Q9H2K2 946-1162): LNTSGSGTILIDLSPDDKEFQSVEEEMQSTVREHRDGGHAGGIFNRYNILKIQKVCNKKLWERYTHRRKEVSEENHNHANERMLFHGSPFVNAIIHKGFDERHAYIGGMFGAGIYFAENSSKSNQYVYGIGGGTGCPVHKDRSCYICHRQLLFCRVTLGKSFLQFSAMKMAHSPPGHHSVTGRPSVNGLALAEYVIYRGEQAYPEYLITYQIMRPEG

Row | SMILES | IC50 [1] [nM] | IC50 (PARP1) [nM] | IC50 ([2]; 400 nM NAD, 60 minutes at RT) [nM] | IC50 (PARP2) [nM] | IC50 [3] [nM] | EC50 ([4]; SW480 cells, 24 hours) [nM] | IC50 [2] [nM] | EC50 ([4]; SW480, 24 h) [nM]
1 | O=C(CCCc1nc2ccccc2c(=O)[nH]1)N[C@H]1CC[C@H](OCc2ccccc2)C1 (stereo in doubt) [Example 62, N-((1R,3R)-3-(benzyloxy)cyclopentyl)-4-(4-oxo-3,4-dihydroquinazolin-2-yl)butanamide+N-((1S,3S)-3-(benzyloxy)cyclopentyl)-4-(4-oxo-3,4-dihydroquinazolin-2-yl)butanamide] | > 10000 | 7680 | 587 | 2840 | 138 | – | – | –
2 | O=C(CCCc1nc2ccccc2c(=O)[nH]1)N1CCC(c2nnc(-c3cccc(Cl)c3)o2)CC1 [Example 3, 2-(4-(4-(5-(3-chlorophenyl)-1,3,4-oxadiazol-2-yl)-1-piperidinyl)-4-oxobutyl)-4(3H)-quinazolinone] | 41.7 | 3050 | 11 | 414 | 2.54 | 260 | – | –
3 | O=C(CCCc1nc2ccccc2c(=O)[nH]1)N1CCC(c2nnc(-c3ccc(Cl)cc3)o2)CC1 [Example 4, 2-(4-(4-(5-(4-chlorophenyl)-1,3,4-oxadiazol-2-yl)piperidin-1-yl)-4-oxobutyl)quinazolin-4(3H)-one] | 36.4 | 2410 | 11 | 961 | 2.06 | 210 | – | –
4 | O=C(CCCc1nc2ccccc2c(=O)[nH]1)N1CCC(c2nnc(-c3cccc(F)c3)o2)CC1 [Example 5, 2-(4-(4-(5-(3-fluorophenyl)-1,3,4-oxadiazol-2-yl)-1-piperidinyl)-4-oxobutyl)-4(3H)-quinazolinone] | 92.2 | 3760 | 31.8 | 2350 | 4.84 | 771 | – | –
5 | O=C(CCCc1nc2ccccc2c(=O)[nH]1)N1CCC(c2nnc(-c3ccc(F)cc3)o2)CC1 [Example 6, 2-(4-(4-(5-(4-fluorophenyl)-1,3,4-oxadiazol-2-yl)piperidin-1-yl)-4-oxobutyl)quinazolin-4(3H)-one] | 63.9 | 5410 | 18.8 | 783 | 2.59 | 247 | – | –
6 | Cc1ccc2[nH]c(=O)n(C3CCN(C(=O)CCCc4nc5ccccc5c(=O)[nH]4)CC3)c2c1 [Example 7, 2-(4-(4-(6-methyl-2-oxo-2,3-dihydro-1H-benzimidazol-1-yl)-1-piperidinyl)-4-oxobutyl)-4(3H)-quinazolinone] | 626 | 1930 | 6.94 | 192 | 3.38 | 651 | – | –
7 | O=C(CCCc1nc2ccccc2c(=O)[nH]1)N1CCC(c2nnc(-c3ccccc3)s2)CC1 [Example 9, 2-(4-oxo-4-(4-(5-phenyl-1,3,4-thiadiazol-2-yl)-1-piperidinyl)butyl)-4(3H)-quinazolinone] | 56.6 | 2860 | 168 | 471 | 18.5 | 1230 | – | –
8 | Cc1ccc2c(c1)[nH]c(=O)n2C1CCN(C(=O)CCCc2nc3ccccc3c(=O)[nH]2)CC1 [Example 11, 2-(4-(4-(5-methyl-2-oxo-2,3-dihydro-1H-benzimidazol-1-yl)-1-piperidinyl)-4-oxobutyl)-4(3H)-quinazolinone] | 157 | 867 | 2.76 | 103 | 1.6 | 247 | – | –
9 | O=C(CCCc1nc2ccccc2c(=O)[nH]1)N1CCC(c2nnc(-c3ccccn3)o2)CC1 [Example 12, 2-(4-oxo-4-(4-(5-(2-pyridinyl)-1,3,4-oxadiazol-2-yl)-1-piperidinyl)butyl)-4(3H)-quinazolinone] | 1840 | 6290 | 89.7 | 1920 | 15.9 | 1220 | – | –
10 | Cc1cc(=O)[nH]c(SCCC(=O)N[C@H]2CC[C@H](c3nnc(-c4ccccc4)o3)CC2)n1 [Example 37, 3-((4-methyl-6-oxo-1,6-dihydropyrimidin-2-yl)thio)-N-((1r,4r)-4-(5-phenyl-1,3,4-oxadiazol-2-yl)cyclohexyl)propanamide] | 738 | > 85000 | 3.7 | > 170000 | 3.48 | – | – | –
11 | O=C(CCCc1nc2ccccc2c(=O)[nH]1)N1CC=C(n2c(=O)[nH]c3ccccc32)CC1 [Example 46, 2-(4-oxo-4-(4-(2-oxo-2,3-dihydro-1H-benzimidazol-1-yl)-3,6-dihydro-1(2H)-pyridinyl)butyl)-4(3H)-quinazolinone trifluoroacetic acid] | 1360 | 2050 | 17.7 | – | 4.01 | 4780 | – | –
12 | O=C(CCCc1nc2ccccc2c(=O)[nH]1)N1CCC(N2C(=O)C(F)(F)c3ccccc32)CC1 [Example 60, 2-(4-(4-(3,3-difluoro-2-oxo-2,3-dihydro-1H-indol-1-yl)-1-piperidinyl)-4-oxobutyl)-4(3H)-quinazolinone] | – | 4530 | – | – | 28.9 | – | 46 | 2410
13 | O=C(CCSc1nc2ccccc2c(=O)[nH]1)N1CCC(n2c(=O)[nH]c3cc(Cl)ccc32)CC1 [Example 82, 2-((3-(4-(5-chloro-2-oxo-2,3-dihydro-1H-benzo[d]imidazol-1-yl)piperidin-1-yl)-3-oxopropyl)thio)quinazolin-4(3H)-one] | 3310 | 1470 | 128 | 99.4 | 73.7 | – | – | –
14 | O=C(CSc1nc2ccccc2c(=O)[nH]1)N[C@H]1CC[C@H](n2c(=O)[nH]c3cc(Cl)ccc32)CC1 [Example 87, N-((1r,4r)-4-(5-chloro-2-oxo-2,3-dihydro-1H-benzo[d]imidazol-1-yl)cyclohexyl)-2-((4-oxo-3,4-dihydroquinazolin-2-yl)thio)acetamide] | 7.27 | > 85000 | 0.0597 | – | 2.52 | 25.8 | – | –
15 | O=C(CCSc1nc2ccccc2c(=O)[nH]1)N1CCN(c2n[nH]c3ccccc23)CC1 [Example 94, 2-((3-(4-(1H-indazol-3-yl)-1-piperazinyl)-3-oxopropyl)sulfanyl)-4(3H)-quinazolinone] | 2220 | 1230 | 12.1 | 89.5 | 6.3 | – | – | –
16 | O=C(CCCc1nc2ccccc2c(=O)[nH]1)N[C@H]1CC[C@H](c2ncc(-c3ccccc3)o2)CC1 [Example 95, 4-(4-oxo-3,4-dihydro-2-quinazolinyl)-N-(trans-4-(5-phenyl-1,3-oxazol-2-yl)cyclohexyl)butanamide] | 4.83 | 1930 | 0.0979 | 1070 | 0.16 | – | – | –
17 | N#Cc1ccc2c(c1)[nH]c(=O)n2[C@H]1CC[C@H](NC(=O)CSc2nc3ccccc3c(=O)[nH]2)CC1 [Example 103, N-((1r,4r)-4-(5-cyano-2-oxo-2,3-dihydro-1H-benzo[d]imidazol-1-yl)cyclohexyl)-2-((4-oxo-3,4-dihydroquinazolin-2-yl)thio)acetamide] | 138 | – | 0.129 | 2280 | 9.92 | 198 | – | –
18 | O=C(CCSc1nc2ccccc2c(=O)[nH]1)N[C@H]1CC[C@H](c2nnc(-c3cccc(Cl)c3)o2)CC1 [Example 118, N-((1r,4r)-4-(5-(3-chlorophenyl)-1,3,4-oxadiazol-2-yl)cyclohexyl)-3-((4-oxo-3,4-dihydroquinazolin-2-yl)thio)propanamide] | 1.2 | – | 0.107 | 3280 | 4.98 | 3.34 | – | –
19 | COc1cccc(-c2nnc([C@H]3CC[C@H](NC(=O)CCSc4nc5ccccc5c(=O)[nH]4)CC3)o2)c1 [Example 120, N-((1r,4r)-4-(5-(3-methoxyphenyl)-1,3,4-oxadiazol-2-yl)cyclohexyl)-3-((4-oxo-3,4-dihydroquinazolin-2-yl)thio)propanamide] | 2.03 | – | 0.0647 | 3730 | 5.35 | 2.33 | – | –
20 | N#Cc1cccc(-c2nnc([C@H]3CC[C@H](NC(=O)CCc4nc5ccccc5c(=O)[nH]4)CC3)o2)c1 [Example 137, N-((1r,4r)-4-(5-(3-cyanophenyl)-1,3,4-oxadiazol-2-yl)cyclohexyl)-3-(4-oxo-3,4-dihydroquinazolin-2-yl)propanamide] | 741 | – | 217 | 4680 | 99.8 | 1820 | – | –
21 | O=C(CCSc1cc(=O)n2ccccc2n1)N[C@H]1CC[C@H](c2nnc(-c3ccccc3)o2)CC1 [Example 144, 3-((4-oxo-4H-pyrido[1,2-a]pyrimidin-2-yl)sulfanyl)-N-(trans-4-(5-phenyl-1,3,4-oxadiazol-2-yl)cyclohexyl)propanamide] | 349 | > 85000 | 4.78 | > 170000 | 5.46 | – | – | –
22 | O=C(CCSc1nc2ccc(F)cc2c(=O)[nH]1)N[C@H]1CC[C@H](c2nnc(-c3ccccc3)o2)CC1 [Example 145, 3-((6-fluoro-4-oxo-3,4-dihydro-2-quinazolinyl)sulfanyl)-N-(trans-4-(5-phenyl-1,3,4-oxadiazol-2-yl)cyclohexyl)propanamide] | 7.66 | 3540 | 0.148 | 1120 | 5.02 | – | – | –
